Data published in publication PMC6364417, “Kinase inhibitor library screening identifies synergistic drug combinations effective in sensitive and resistant melanoma cells” (Journal of Experimental & Clinical Cancer Research : CR, 2019).
pIC50: −log10 of the molar value. Like-named read-outs stand apart in the source and are kept apart here.

Assays:
[1] = test system: A375-GP cells (Dabrafenib-resistant); assay: Dose-response curves and IC50, PrestoBlue cell viability, 72 h; assay type: cell-based, human; details: n.e. = did not suppress growth below 50% in the tested concentration range, read-out: Half-maximal inhibitory concentration value (IC50), Mean
A375 cells (parental) [2] = assay: as above; assay type: cell-based, human; details: read-out: Half-maximal inhibitory concentration value (IC50), Mean
[3] = test system: A375-GP cells (Dabrafenib-resistant); assay: Kinase inhibitor library screening, PrestoBlue cell viability, 1 or 10 μM, 72 h; details: A375 GP, 72 h; for cell viability, A375 GP, 1μΜ / cell viability, A375 GP, 10μΜ: in %
A375 cells (parental) [4] = assay: as above; details: A375 Parental, 72 h; for cell viability, A375 Parental, 1μΜ / cell viability, A375 Parental, 10μΜ: in %
501Mel cells (parental) = assay: as above; details: 501Mel Parental, 72 h
In short: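 Cells are treated with each inhibitor at 1 or 10 μM, incubated 72 h, then PrestoBlue reagent is added and the plate is read. Data are normalised to untreated cells.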

IGR37 cells (parental) = assay: as above; details: IGR37 Parental, 72 h
[5] = test system: 501Mel-GP cells (Dabrafenib-resistant); assay: as above; details: 501Mel GP, 72 h
[6] = test system: IGR37-XP cells (Vemurafenib-resistant); assay: as above; details: IGR37 XP, 72 h
[7] = test system: A375-XP cells (Vemurafenib-resistant); assay: as above; details: A375 XP, 72 h; for cell viability, A375 XP, 1μΜ / cell viability, A375 XP, 10μΜ: in %
[8] = test system: IGR37-GP cells (Dabrafenib-resistant); assay: as above; details: IGR37 GP, 72 h
[9] = test system: 501Mel-XP cells (Vemurafenib-resistant); assay: as above; details: 501Mel XP, 72 h
[10] = test system: A375-XP cells (Vemurafenib-resistant); assay: Dose-response curves and IC50, PrestoBlue cell viability, 72 h; assay type: cell-based, human; details: n.e. = did not suppress growth below 50% in the tested concentration range, read-out: Half-maximal inhibitory concentration value (IC50), Mean
[11] = test system: IGR37-GP cells (Dabrafenib-resistant); assay: as above; details: Homo sapiens, 72 h, read-out: Half-maximal inhibitory concentration (IC50)
Method: All inhibitors used in this study were purchased from Selleck Chemicals (Houston, USA). They were dissolved in DMSO to a stock concentration of 10 mM according to the manufacturer’s instructions and stored at − 80 °C. […] Cell viability was measured with the PrestoBlue Cell Viability Reagent (ThermoFisher Scientific) on a CLARIOstar Monochromator microplate reader (BMG Labtech). Using the GraphPad Prism v5.04 software, the half-maximal inhibitor concentration values (IC50) were determined from the curve using the nonlinear log (inhibitor) vs response-variable slope (four parameters) equation. […] The IC50’s were determined for 3 biological replicates and are listed with their standard deviations.
Values represent the mean of at least three biological replicates; one representative curve of at least 3 biological replicates is depicted. _XP: cells resistant to Vemurafenib (red), _GP: cells resistant to Dabrafenib (green).

[12] = Homo sapiens, A-375, n.e. = did not suppress growth below 50% in the tested concentration range
[13] = n.e. = did not suppress growth below 50% in the tested concentration range

CCS(=O)(=O)c1cccc(-c2cc(C(=O)NC3CCN(C)CC3)c(C)c3[nH]c4ncc(C)cc4c23)c1 [TAK-901, reference compound]
pIC50 ([1]; Homo sapiens): 6.47
pIC50 (A375 cells (parental) [2]; [12]): 6.40
cell viability (kinase inhibitor library screening) ([3]; 1μΜ): 41.6%
cell viability (kinase inhibitor library screening) ([3]; 10μΜ): 8.5%
cell viability (kinase inhibitor library screening) (A375 cells (parental) [4]; 10μΜ): 7.6%
cell viability (kinase inhibitor library screening) (A375 cells (parental) [4]; 1μΜ): 45.8%
cell viability (kinase inhibitor library screening) (501Mel cells (parental); 1μΜ): 82.7%
cell viability (kinase inhibitor library screening) (501Mel cells (parental); 10μΜ): 12.7%
cell viability (kinase inhibitor library screening) (IGR37 cells (parental); 1μΜ): 93.0%
cell viability (kinase inhibitor library screening) (IGR37 cells (parental); 10μΜ): 30.2%
cell viability (kinase inhibitor library screening) ([5]; 1μΜ): 88.7%
cell viability (kinase inhibitor library screening) ([5]; 10μΜ): 29.0%
cell viability (kinase inhibitor library screening) ([6]; 1μΜ): 73.0%
cell viability (kinase inhibitor library screening) ([6]; 10μΜ): 4.0%
cell viability (kinase inhibitor library screening) ([7]; 1μΜ): 52.1%
cell viability (kinase inhibitor library screening) ([7]; 10μΜ): 9.6%
cell viability (kinase inhibitor library screening) ([8]; 1μΜ): 97.2%
cell viability (kinase inhibitor library screening) ([8]; 10μΜ): 9.5%
cell viability (kinase inhibitor library screening) ([9]; 1μΜ): 83.2%
cell viability (kinase inhibitor library screening) ([9]; 10μΜ): 25.7%
pIC50 ([10]; Homo sapiens): 6.33

COc1ccc(-c2cc3c(C)nc(N)nc3n([C@H]3CC[C@H](OCCO)CC3)c2=O)cn1 [PF-04691502, reference compound]
pIC50 [1]: 6.60
pIC50 (A375 cells (parental) [2]; [13]): 6.53
Cell viability in kinase inhibitor library screening, A375 GP, 1μΜ ([3]; 1μΜ): 22.6
Cell viability in kinase inhibitor library screening, A375 GP, 10μΜ ([3]; 10μΜ): 3.9
Cell viability in kinase inhibitor library screening, A375 Parental, 10μΜ (A375 cells (parental) [4]; 10μΜ): 2.9
Cell viability in kinase inhibitor library screening, A375 Parental, 1μΜ (A375 cells (parental) [4]; 1μΜ): 25.2
Cell viability in kinase inhibitor library screening, 501Mel Parental, 1μΜ (501Mel cells (parental); 1μΜ, in %): 21.9
Cell viability in kinase inhibitor library screening, 501Mel Parental, 10μΜ (501Mel cells (parental); 10μΜ, in %): 0.8
Cell viability in kinase inhibitor library screening, IGR37 Parental, 1μΜ (IGR37 cells (parental); 1μΜ, in %): 38.6
Cell viability in kinase inhibitor library screening, IGR37 Parental, 10μΜ (IGR37 cells (parental); 10μΜ, in %): 5.0
Cell viability in kinase inhibitor library screening, 501Mel GP, 1μΜ ([5]; 1μΜ, in %): 14.9
Cell viability in kinase inhibitor library screening, 501Mel GP, 10μΜ ([5]; 10μΜ, in %): 0.379
Cell viability in kinase inhibitor library screening, IGR37 XP, 10μΜ ([6]; 10μΜ): 3.2%
Cell viability in kinase inhibitor library screening, IGR37 XP, 1μΜ ([6]; 1μΜ, in %): 22.1
Cell viability in kinase inhibitor library screening, A375 XP, 1μΜ ([7]; 1μΜ): 18.5
Cell viability in kinase inhibitor library screening, A375 XP, 10μΜ ([7]; 10μΜ): 3.3
Cell viability in kinase inhibitor library screening, IGR37 GP, 10μΜ ([8]; 10μΜ): 7.5%
Cell viability in kinase inhibitor library screening, IGR37 GP, 1μΜ ([8]; 1μΜ, in %): 50.6
Cell viability in kinase inhibitor library screening, 501Mel XP, 1μΜ ([9]; 1μΜ, in %): 10.0
Cell viability in kinase inhibitor library screening, 501Mel XP, 10μΜ ([9]; 10μΜ, in %): -0.224
pIC50 [10]: 6.72

Nc1ncnc2c1c(-c1cnc3[nH]ccc3c1)nn2C1CCCC1 [PP-121, reference compound]
pIC50 [1]: 6.38
pIC50 (A375 cells (parental) [2]; [13]): 6.26
cell viability (kinase inhibitor library screening) ([3]; 1μΜ): 36.1%
cell viability (kinase inhibitor library screening) ([3]; 10μΜ): 8.1%
cell viability (kinase inhibitor library screening) (A375 cells (parental) [4]; 10μΜ): 6.5%
cell viability (kinase inhibitor library screening) (A375 cells (parental) [4]; 1μΜ): 45.3%
cell viability (kinase inhibitor library screening) (501Mel cells (parental); 1μΜ): 55.7%
cell viability (kinase inhibitor library screening) (501Mel cells (parental); 10μΜ): 3.0%
cell viability (kinase inhibitor library screening) (IGR37 cells (parental); 1μΜ): 75.3%
cell viability (kinase inhibitor library screening) (IGR37 cells (parental); 10μΜ): 14.0%
cell viability (kinase inhibitor library screening) ([5]; 1μΜ): 44.0%
cell viability (kinase inhibitor library screening) ([5]; 10μΜ): 5.9%
cell viability (kinase inhibitor library screening) ([6]; 1μΜ): 60.1%
cell viability (kinase inhibitor library screening) ([6]; 10μΜ): 4.3%
cell viability (kinase inhibitor library screening) ([7]; 1μΜ): 37.9%
cell viability (kinase inhibitor library screening) ([7]; 10μΜ): 4.5%
cell viability (kinase inhibitor library screening) ([8]; 1μΜ): 69.2%
cell viability (kinase inhibitor library screening) ([8]; 10μΜ): 9.1%
cell viability (kinase inhibitor library screening) ([9]; 1μΜ): 51.0%
cell viability (kinase inhibitor library screening) ([9]; 10μΜ): 2.4%
pIC50 [10]: 6.19

CNC(=O)c1c(F)cccc1Nc1nc(Nc2cc3c(cc2OC)CCN3C(=O)CN(C)C)nc2[nH]ccc12 [GSK1838705A, reference compound]
pIC50 [1]: 6.01
pIC50 (A375 cells (parental) [2]; [13]): 5.92
cell viability, A375 GP, 1μΜ ([3]; 1μΜ): 67.8
cell viability, A375 GP, 10μΜ ([3]; 10μΜ): 10.4
cell viability, A375 Parental, 1μΜ (A375 cells (parental) [4]; 1μΜ): 68.1
cell viability, A375 Parental, 10μΜ (A375 cells (parental) [4]; 10μΜ): 12.8
cell viability, 501Mel Parental, 1μΜ (501Mel cells (parental); 1μΜ, in %): 73.7
cell viability, 501Mel Parental, 10μΜ (501Mel cells (parental); 10μΜ, in %): 0.4
cell viability, IGR37 Parental, 1μΜ (IGR37 cells (parental); 1μΜ, in %): 92.2
cell viability, IGR37 Parental, 10μΜ (IGR37 cells (parental); 10μΜ, in %): 1.2
cell viability, 501Mel GP, 1μΜ ([5]; 1μΜ, in %): 75.8
cell viability, 501Mel GP, 10μΜ ([5]; 10μΜ, in %): -0.19
cell viability, IGR37 XP, 10μΜ ([6]; 10μΜ): 1%
cell viability, IGR37 XP, 1μΜ ([6]; 1μΜ, in %): 42.8
cell viability, A375 XP, 1μΜ ([7]; 1μΜ): 70.8
cell viability, A375 XP, 10μΜ ([7]; 10μΜ): 11.1
cell viability, IGR37 GP, 10μΜ ([8]; 10μΜ): 2%
cell viability, IGR37 GP, 1μΜ ([8]; 1μΜ, in %): 73.7
cell viability, 501Mel XP, 1μΜ ([9]; 1μΜ, in %): 70.4
cell viability, 501Mel XP, 10μΜ ([9]; 10μΜ, in %): -0.3
pIC50 [10]: 6.11

CC(=O)Nc1cccc(-n2c(=O)n(C3CC3)c(=O)c3c(Nc4ccc(I)cc4F)n(C)c(=O)c(C)c32)c1 [Trametinib]
pIC50 ([1]; Homo sapiens): 8.92
pIC50 (A375 cells (parental) [2]; [12]): 9.40
pIC50 ([10]; Homo sapiens): 8.62
pIC50 [11]: 9.15

CCC[C@H](NC(=O)/C(C#N)=C/c1cccc(Br)n1)c1ccccc1 [WP1130, reference compound]
pIC50 [1]: 5.80
pIC50 (A375 cells (parental) [2]; [13]): 5.79
cell viability, A375 GP, 1μΜ ([3]; 1μΜ): 87.1
cell viability, A375 GP, 10μΜ ([3]; 10μΜ): 1.1
cell viability, A375 Parental, 1μΜ (A375 cells (parental) [4]; 1μΜ): 89.3
cell viability, A375 Parental, 10μΜ (A375 cells (parental) [4]; 10μΜ): 0.545
cell viability, 501Mel Parental, 1μΜ (501Mel cells (parental); 1μΜ, in %): 93.7
cell viability, 501Mel Parental, 10μΜ (501Mel cells (parental); 10μΜ, in %): 0.6
cell viability, IGR37 Parental, 1μΜ (IGR37 cells (parental); 1μΜ, in %): 99.4
cell viability, IGR37 Parental, 10μΜ (IGR37 cells (parental); 10μΜ, in %): -1.6
cell viability, 501Mel GP, 1μΜ ([5]; 1μΜ, in %): 104.8
cell viability, 501Mel GP, 10μΜ ([5]; 10μΜ, in %): -0.156
cell viability, IGR37 XP, 10μΜ ([6]; 10μΜ): 1.1%
cell viability, IGR37 XP, 1μΜ ([6]; 1μΜ, in %): 99.1
cell viability, A375 XP, 1μΜ ([7]; 1μΜ): 57.6
cell viability, A375 XP, 10μΜ ([7]; 10μΜ): 0.429
cell viability, IGR37 GP, 10μΜ ([8]; 10μΜ): 1.9%
cell viability, IGR37 GP, 1μΜ ([8]; 1μΜ, in %): 96.2
cell viability, 501Mel XP, 1μΜ ([9]; 1μΜ, in %): 103.9
cell viability, 501Mel XP, 10μΜ ([9]; 10μΜ, in %): -0.185
pIC50 [10]: 5.81

CC(C)CC(=O)Nc1[nH]nc2c1CN(C(=O)C1CCN(C)CC1)C2(C)C [PHA-793887, reference compound]
pIC50 ([1]; Homo sapiens): 6.14
pIC50 (A375 cells (parental) [2]; [12]): 6.24
cell viability (kinase inhibitor library screening) ([3]; 1μΜ): 52.2%
cell viability (kinase inhibitor library screening) ([3]; 10μΜ): 4.2%
cell viability (kinase inhibitor library screening) (A375 cells (parental) [4]; 10μΜ): 8.5%
cell viability (kinase inhibitor library screening) (A375 cells (parental) [4]; 1μΜ): 47.0%
cell viability (kinase inhibitor library screening) (501Mel cells (parental); 1μΜ): 90.8%
cell viability (kinase inhibitor library screening) (501Mel cells (parental); 10μΜ): 20.0%
cell viability (kinase inhibitor library screening) (IGR37 cells (parental); 1μΜ): 100.2%
cell viability (kinase inhibitor library screening) (IGR37 cells (parental); 10μΜ): 41.8%
cell viability (kinase inhibitor library screening) ([5]; 10μΜ): 25.0%
cell viability (kinase inhibitor library screening) ([6]; 1μΜ): 87.3%
cell viability (kinase inhibitor library screening) ([6]; 10μΜ): 5.3%
cell viability (kinase inhibitor library screening) ([7]; 1μΜ): 60.1%
cell viability (kinase inhibitor library screening) ([7]; 10μΜ): 10.2%
cell viability (kinase inhibitor library screening) ([8]; 1μΜ): 96.5%
cell viability (kinase inhibitor library screening) ([8]; 10μΜ): 23.5%
cell viability (kinase inhibitor library screening) ([9]; 1μΜ): 88.3%
cell viability (kinase inhibitor library screening) ([9]; 10μΜ): 13.3%
pIC50 ([10]; Homo sapiens): 5.98
